Here are results for 3 molecules from patent publication US9896522B2, “Solid phase fluorescence labeling reagents and uses thereof” (The Texas A&M University System, priority 2010, dated 2018).

A short description of data set [1]: UV absorbance spectra and molar absorbance. The data set is classed as physicochemical. Here is the method: UV absorbance spectra were recorded using a Beckman 168 photodiode detector during the HILIC separations. The eluent compositions at the time of detection were 26 mM NH4HCO2 74% ACN/water for APTS, 24 mM NH4HCO2 76% ACN/water for trisulfonamide 22 and 10 mM MOPS with 5 mM NaOH in 76% ACN/water for 33. Fluorescence spectra at different pH values were recorded on a Shimadzu RF-5301PC spectrofluorometer. The buffers used are tabulated below: UV absorbance and fluorescence spectra for the quantum yield determinations were acquired using a Varian 100 Bio UV-Vis spectrophotometer and a Varian Cary Eclipse fluorescence spectrometer, respectively. The samples were dissolved in a pH 9 0.1M aqueous sodium bicarbonate buffer.

Data set [2] in a line: fluorescence emission spectra at different pH values. To be noted: fluorescence emission spectrum. The data set is classed as physicochemical. On the procedure:
It was also developed to have pH-independent fluorescence properties which are important for CE applications. […] The molar absorbance and relative quantum yield values were also determined using Rhodamine 6G as a standard. UV absorbance spectra were recorded using a Beckman 168 photodiode detector during the HILIC separations. The eluent compositions at the time of detection were 26 mM NH4HCO2 74% ACN/water for APTS, 24 mM NH4HCO2 76% ACN/water for trisulfonamide 22 and 10 mM MOPS with 5 mM NaOH in 76% ACN/water for 33. Fluorescence spectra at different pH values were recorded on a Shimadzu RF-5301PC spectrofluorometer.

For data set [3] the following is noted: buffer, pH 2; cited from earlier work.

Consider `CN(CCS(=O)(=O)O)S(=O)(=O)c1cc(N)c2ccc3c(S(=O)(=O)N(C)CCS(=O)(=O)O)cc(S(=O)(=O)N(C)CCS(=O)(=O)O)c4ccc1c2c34` [compound 22], for which the “shift of λmax ex towards longer wavelength” value in data set [1] (relative to APTS) is 44 nm. Also, in data set [2], the λmax em is listed as 540 nm.
`Nc1cc(S(=O)(=O)O)c2ccc3c(S(=O)(=O)O)cc(S(=O)(=O)O)c4ccc1c2c43` [APTS, 8-Aminopyrene-1,3,6-trisulfonic acid, reference compound]: the “share of the maximum absorbance that can be used at 488 nm” value in data set [1] (excitation at 488 nm) is “about 4%”.
For `CCCCCCCCCCCC1(C)OCC(COCCCS(=O)(=O)[O-])O1.[Na+]` (stereo not shown) [ALS], in data set [3], the half life was 8 min.
